The source made the active and inactive calls. The rule behind the calls is not given here.
Columns and labels:
Homo sapiens = species: Homo sapiens; assay: Binding affinity to RNase L (unknown origin) expressed in Escherichia coli BL21 (DE3) assessed as thermal stability by measuring melting temperature at 60 uM incubated for 50 mins by NanoDSF analysis
JAR [1] = assay: Antiproliferative activity against human JAR cells assessed as cell growth inhibition at 10 uM incubated for 72 hrs by MTT assay relative to control; format: functional
JAR [2] = assay: Antiproliferative activity against human JAR cells assessed as cell growth inhibition incubated for 72 hrs by MTT assay; format: functional, cell-based
K562 = assay: Antiproliferative activity against human K562 cells assessed as cell growth inhibition incubated for 72 hrs by MTT assay; format: functional, cell-based; details: K562, 72 h
A549 = assay: Antiproliferative activity against human A549 cells assessed as cell growth inhibition incubated for 72 hrs by MTT assay; format: functional, cell-based; details: A549, 72 h
MCF7 = assay: Antiproliferative activity against human MCF7 cells assessed as cell growth inhibition incubated for 72 hrs by MTT assay; format: functional, cell-based; details: MCF7, 72 h
JAR [3] = assay: Induction of apoptosis in human JAR cells assessed as fold increase in cleaved PARP level at 10 uM incubated for 24 hrs by Western blot analysis; format: functional
JAR [4] = assay: Induction of apoptosis in human JAR cells assessed as fold increase in PARP cleavage at 5 to10 uM incubated for 24 hrs by Western blot analysis; format: functional; details: dose 10 µM
JAR [5] = assay: Induction of apoptosis in human JAR cells assessed as live cells at 5 uM measured after 72 hrs by Annexin V-FITC/PI staining based flow cytometry (reference value: 79.87%); format: functional
JAR [6] = assay: Induction of apoptosis in human JAR cells assessed as early apoptotic cells at 5 uM measured after 72 hrs by Annexin V-FITC/PI staining based flow cytometry (reference value: 8.24%); format: functional
JAR [7] = assay: Induction of apoptosis in human JAR cells assessed as late apoptotic cells at 5 uM measured after 72 hrs by Annexin V-FITC/PI staining based flow cytometry (reference value: 11.67%); format: functional
JAR [8] = assay: Induction of apoptosis in human JAR cells assessed as necrotic cells at 5 uM measured after 72 hrs by Annexin V-FITC/PI staining based flow cytometry (reference value: 0.22%); format: functional
JAR [9] = assay: Induction of apoptosis in human JAR cells assessed as live cells at 10 uM measured after 72 hrs by Annexin V-FITC/PI staining based flow cytometry (reference value: 79.87%); format: functional
JAR [10] = assay: Induction of apoptosis in human JAR cells assessed as early apoptotic cells at 10 uM measured after 72 hrs by Annexin V-FITC/PI staining based flow cytometry (reference value: 8.24%); format: functional
JAR [11] = assay: Induction of apoptosis in human JAR cells assessed as late apoptotic cells at 10 uM measured after 72 hrs by Annexin V-FITC/PI staining based flow cytometry (reference value: 11.67%); format: functional
JAR [12] = assay: Induction of apoptosis in human JAR cells assessed as necrotic cells at 10 uM measured after 72 hrs by Annexin V-FITC/PI staining based flow cytometry (reference value: 0.22%); format: functional
JAR [13] = assay: Inhibition of cell migration in human JAR cells at 5 uM measured after 72 hrs by scratch wound healing assay relative to control; format: functional
JAR [14] = assay: Inhibition of colony formation in human JAR cells measured after 3 days by Giemsa staining based microscopic analysis; format: functional, cell-based; details: time 3.0 day, DDE = dose-dependent effect
JAR [15] = assay: Inhibition of colony formation in human JAR cells assessed as cell reproductive death at upto 5 uM measured after 3 days by Giemsa staining based microscopic analysis; format: functional; details: time 3.0 day

Question: What does the source list for CCOC(=O)C1=C(Nc2ccccc2)S/C(=C\c2ccc(F)c(C#N)c2)C1=O?
Answer: ΔTm (Homo sapiens): 0.8 °C; inhibition at 10 µM (JAR [1]): 99.9%; IC50 (JAR [2]): 1.5 µM; IC50 (K562): 1.6 µM; IC50 (A549): 8 µM; IC50 (MCF7): 5.2 µM; fold change (FC) (JAR [3]): >2; fold change (FC) (JAR [4]): >2; Activity (JAR [5]): 47.62%; Activity (JAR [6]): 23.02%; Activity (JAR [7]): 27.47%; Activity (JAR [8]): 1.88%; Activity (JAR [9]): 32.48%; Activity (JAR [10]): 5.06%; Activity (JAR [11]): 55.7%; Activity (JAR [12]): 6.8%; inhibition at 5 µM (JAR [13]): 85%; inhibition (JAR [14]): Dde; inhibition (JAR [15]): Active

From ChEMBL document CHEMBL5131493, “Synthesis and evaluation of RNase L-binding 2-aminothiophenes as anticancer agents” (Bioorg Med Chem, 2022)
